Where “and” joins values, the source holds several entries; their conditions need not be identical. Equal values may be shown once.
Test system: panel of 484 cancer cell lines
Assay: PRISM cancer cell line profiling, 5 days
Assay type: cell-based
Design: Viability: scale not given here; AUC: unit not given beside the values
Description: Cancer cell line profiling was performed using the Broad’s PRISM platform. Cell treatment and data analysis were performed as described in Yu et al[42]. Raw Luminex signal was converted to AUC values for each cell line as described. The resulting AUC profile for each compound was modeled against DepMap using the limma package in R[71]. Because hotspot mutation analysis was performed against DepMap, TP53 annotations in Fig. 6c,d are directly from DepMap.

[1] = 8MGBA_CENTRAL_NERVOUS_SYSTEM, pert_dose 6.10E-04
[2] = 253J_URINARY_TRACT, pert_dose 6.10E-04
[3] = 786O_KIDNEY, pert_dose 6.10E-04
[4] = 8305C_THYROID, pert_dose 6.10E-04
[5] = 8505C_THYROID, pert_dose 6.10E-04
[6] = A172_CENTRAL_NERVOUS_SYSTEM, pert_dose 6.10E-04
[7] = ACHN_KIDNEY, pert_dose 6.10E-04
[8] = AN3CA_ENDOMETRIUM, pert_dose 6.10E-04
[9] = ASPC1_PANCREAS, pert_dose 6.10E-04
[10] = BC3C_URINARY_TRACT, pert_dose 6.10E-04
[11] = BECKER_CENTRAL_NERVOUS_SYSTEM, pert_dose 6.10E-04
[12] = BFTC905_URINARY_TRACT, pert_dose 6.10E-04
[13] = BFTC909_KIDNEY, pert_dose 6.10E-04
[14] = BICR6_UPPER_AERODIGESTIVE_TRACT, pert_dose 6.10E-04
[15] = BICR16_UPPER_AERODIGESTIVE_TRACT, pert_dose 6.10E-04

## COc1ccc(C2=N[C@@H](c3ccc(Cl)cc3)[C@@H](c3ccc(Cl)cc3)N2C(=O)N2CCNC(=O)C2)c(OC(C)C)c1 [Nutlin-3A]
8MGBA_CENTRAL_NERVOUS_SYSTEM
  AUC: 1.128
[1]
  MFI 8MGBA_CENTRAL_NERVOUS_SYSTEM: 9934 and 14986 and 8645 and 10478 and 11554
  Viability: 0.9428
22RV1_PROSTATE
  AUC: 1.096
42MGBA_CENTRAL_NERVOUS_SYSTEM
  AUC: 1.109
42MGBA_CENTRAL_NERVOUS_SYSTEM, pert_dose 6.10E-04
  MFI 42MGBA_CENTRAL_NERVOUS_SYSTEM: 4116 and 5824 and 3462 and 5974.5 and 4899
253JBV_URINARY_TRACT
  AUC: 0.9024
253J_URINARY_TRACT
  AUC: 0.9134
[2]
  MFI 253J_URINARY_TRACT: 13400 and 14082 and 16791.5 and 16677.5 and 16246
  Viability: 0.9155
639V_URINARY_TRACT
  AUC: 1.087
647V_URINARY_TRACT
  AUC: 1.106
647V_URINARY_TRACT, pert_dose 6.10E-04
  MFI 647V_URINARY_TRACT: 28744 and 33002 and 29259 and 22669.5 and 34567
769P_KIDNEY
  AUC: 0.9079
786O_KIDNEY
  AUC: 1.095
[3]
  MFI 786O_KIDNEY: 5233.5 and 8009.5 and 6751 and 6471 and 5976.5
  Viability: 0.8974
5637_URINARY_TRACT
  AUC: 1.131
5637_URINARY_TRACT, pert_dose 6.10E-04
  MFI 5637_URINARY_TRACT: 5164 and 5198 and 5608 and 5118 and 4250
8305C_THYROID
  AUC: 1.086
[4]
  MFI 8305C_THYROID: 12807.5 and 11646.5 and 14452 and 19016 and 21699
  Viability: 0.9334
8505C_THYROID
  AUC: 1.09
[5]
  MFI 8505C_THYROID: 8489.5 and 8271 and 7453 and 9513 and 9868
  Viability: 1.233
2313287_STOMACH
  AUC: 1.164
A101D_SKIN
  AUC: 0.8317
A172_CENTRAL_NERVOUS_SYSTEM
  AUC: 0.8527
[6]
  MFI A172_CENTRAL_NERVOUS_SYSTEM: 9637 and 10480 and 8488 and 7646 and 8288
  Viability: 1.171
A204_SOFT_TISSUE
  AUC: 0.961
A204_SOFT_TISSUE, pert_dose 6.10E-04
  MFI A204_SOFT_TISSUE: 193.5 and 222 and 295.5 and 243.5 and 208
A375_SKIN
  AUC: 0.8657
A375_SKIN, pert_dose 6.10E-04
  MFI A375_SKIN: 6835.5 and 8654.5 and 5268 and 5613 and 4840.5
  Viability: 1.106
A549_LUNG
  AUC: 0.859
A549_LUNG, pert_dose 6.10E-04
  MFI A549_LUNG: 9119 and 8938 and 13071.5 and 13916 and 10911
  Viability: 1.178
A673_BONE
  AUC: 1.118
A704_KIDNEY
  AUC: 0.9164
A2058_SKIN
  AUC: 1.115
A2058_SKIN, pert_dose 6.10E-04
  MFI A2058_SKIN: 18135 and 19395 and 19549.5 and 22935 and 20108
  Viability: 1.165
A2780_OVARY
  AUC: 0.8149
A2780_OVARY, pert_dose 6.10E-04
  MFI A2780_OVARY: 18911 and 15634 and 16575 and 14170.5 and 15163.5
ABC1_LUNG
  AUC: 1.193
ACCMESO1_PLEURA
  AUC: 1.068
ACHN_KIDNEY
  AUC: 0.8632
[7]
  MFI ACHN_KIDNEY: 12459.5 and 11580 and 11974.5 and 13015.5 and 8174
  Viability: 1.255
AGS_STOMACH
  AUC: 1.099
AGS_STOMACH, pert_dose 6.10E-04
  MFI AGS_STOMACH: 33881 and 40936.5 and 34938 and 35658 and 38326
AN3CA_ENDOMETRIUM
  AUC: 1.0825
[8]
  MFI AN3CA_ENDOMETRIUM: 6120 and 10572 and 7019 and 6758 and 9328
  Viability: 0.9599
ASPC1_PANCREAS
  AUC: 1.065
[9]
  MFI ASPC1_PANCREAS: 18934.5 and 23594 and 20951.5 and 18601 and 21238
  Viability: 1.138
BC3C_URINARY_TRACT
  AUC: 1.147
[10]
  MFI BC3C_URINARY_TRACT: 12791.5 and 13915 and 8459 and 10458.5 and 8646
  Viability: 1.328
BCPAP_THYROID
  AUC: 1.122
BECKER_CENTRAL_NERVOUS_SYSTEM
  AUC: 1.117
[11]
  MFI BECKER_CENTRAL_NERVOUS_SYSTEM: 24187 and 19210 and 17010 and 22220 and 21019.5
  Viability: 1.525
BEN_LUNG
  AUC: 1.146
BEN_LUNG, pert_dose 6.10E-04
  MFI BEN_LUNG: 7960 and 8798 and 6007 and 9178 and 9972.5
  Viability: 1.0724
BFTC905_URINARY_TRACT
  AUC: 1.2069
[12]
  MFI BFTC905_URINARY_TRACT: 6936 and 8493 and 9950.5 and 8885 and 6674.5
  Viability: 0.7676
BFTC909_KIDNEY
  AUC: 1.167
[13]
  MFI BFTC909_KIDNEY: 11810 and 18038 and 14602 and 12914 and 16966
  Viability: 1.223
BHT101_THYROID
  AUC: 1.133
BICR6_UPPER_AERODIGESTIVE_TRACT
  AUC: 1.14
[14]
  MFI BICR6_UPPER_AERODIGESTIVE_TRACT: 13342 and 11342 and 11621 and 10074.5 and 14217
  Viability: 1.497
BICR16_UPPER_AERODIGESTIVE_TRACT
  AUC: 1.202
[15]
  MFI BICR16_UPPER_AERODIGESTIVE_TRACT: 5443.5 and 5515 and 3801.5 and 7225 and 7467
  Viability: 1.266
BICR31_UPPER_AERODIGESTIVE_TRACT
  AUC: 1.128
BICR31_UPPER_AERODIGESTIVE_TRACT, pert_dose 6.10E-04
  MFI BICR31_UPPER_AERODIGESTIVE_TRACT: 17717 and 15090 and 19092 and 15830 and 14976
BICR56_UPPER_AERODIGESTIVE_TRACT
  AUC: 1.158
BT474_BREAST
  AUC: 1.172
BT549_BREAST
  AUC: 1.133
BXPC3_PANCREAS
  AUC: 1.49
CADOES1_BONE
  AUC: 1.1262
CADOES1_BONE, pert_dose 6.10E-04
  Viability: 1.326
CAKI1_KIDNEY
  AUC: 0.8906
CAKI1_KIDNEY, pert_dose 6.10E-04
  MFI CAKI1_KIDNEY: 21451 and 18142 and 20425 and 19719.5 and 25262.5
